Assay results taken from US11666589B2, “Pivarubicin and benzarubicin compositions” (Paradox Pharmaceuticals, Inc., priority 2020, dated 2023).

Key:
[1] = system: 32D.3 murine myeloid cells; experiment: Drug biotransformation analysis (HPLC of intracellular drug) in 32D.3 cells; type: in vitro ADME
From the text: (§1) Intracellular drug was extracted and analyzed by fluorescence HPLC as described previously.

[2] = system: 293 embryonic human kidney cells; experiment: Drug biotransformation analysis (HPLC of intracellular drug) in 293 cells; type: in vitro ADME
From the text: as §1

[3] = system: J774.2 murine macrophage-like cells; experiment: Drug biotransformation analysis (HPLC of intracellular drug) in J774.2 cells; type: in vitro ADME
From the text: as §1

[4] = system: 32D.3, J774.2 and 293 cells; experiment: Biotransformation to AD 288 after uptake into cells; type: in vitro ADME; settings: 8 hours after drug uptake into cells
From the text: as §1

[5] = system: CEM/VLB-10; settings: CEM/VLB-10, selecting drug; cited from earlier work
[6] = system: CEM/VLB-100; settings: CEM/VLB-100, selecting drug; cited from earlier work

Row | SMILES | % Parent Compound ([1]; 32D.3, 1 hr, 1 μM drug, 37° C.) [%] | % Parent Compound ([1]; 32D.3, 8 hr (1 hr drug + 7 hours drug-free medium)) [%] | % Parent Compound ([2]; 293, 1 hr, 1 μM drug, 37° C.) [%] | % Parent Compound ([2]; 293, 8 hr (1 hr drug + 7 hours drug-free medium)) [%] | % Parent Compound ([3]; J774.2, 1 hr, 1 μM drug, 37° C.) [%] | % Parent Compound ([3]; J774.2, 8 hr (1 hr drug + 7 hours drug-free medium)) [%] | biotransformation to N-benzyladriamycin (AD 288) [4] | resistance [5] [fold] | resistance [6] [fold]
1 | CCCCC(=O)OCC(=O)[C@]1(O)Cc2c(O)c3c(c(O)c2[C@@H](O[C@H]2C[C@H](NCc4ccccc4)[C@H](O)[C@H](C)O2)C1)C(=O)c1c(OC)cccc1C3=O [AD 198, N-Benzyladriamycin-14-valerate] | 90 | 56 | 80 | 50 | 90 | 50 | approximately 50% | – | –
2 | CC[C@]1(O)C[C@@H]2CN(CCc3c([nH]c4ccccc34)[C@@](C(=O)OC)(c3cc4c(cc3OC)N(C)[C@H]3[C@@](O)(C(=O)OC)[C@H](OC(C)=O)[C@]5(CC)C=CCN6CC[C@]43[C@@H]65)C2)C1 [vinblastine] | – | – | – | – | – | – | – | 10.6 | 269
